In patent US9359352B2, “Substituted benzimidazoles as PI3 kinase inhibitors” (Intellikine LLC, priority 2010, dated 2016):
Where two headings read alike, the source gives them in different places.

Key:
Type in all cases: biochemical
PI3K δ = biological target: T1, PI3K δ (Homo sapiens, UniProt O00329); assay: PI 3-Kinase HTRF inhibition assay, PI3K δ
T1 construct: purchased Upstate
Experimental: (§1) Commercial kits or systems for assaying PI3-K activities are available. The commercially available kits or systems can be used to screen for inhibitors and/or agonists of PI3-Ks including but not limited to PI 3-Kinase α, β, δ, and γ. An exemplary system is PI 3-Kinase (human) HTRF™ Assay from Upstate. […] Briefly, the assay is a time resolved FRET assay that indirectly measures PIP3 product formed by the activity of a PI3-K. The kinase reaction is performed in a microtitre plate (e.g., a 384 well microtitre plate). The total reaction volume is approximately 20 ul per well. In the first step, each well receives 2 ul of test compound in 20% dimethylsulphoxide resulting in a 2% DMSO final concentration. Next, approximately 14.5 ul of a kinase/PIP2 mixture (diluted in 1× reaction buffer) is added per well for a final concentration of 0.25-0.3 ug/ml kinase and 10 μM PIP2. The plate is scaled and incubated for 15 minutes at room temperature. To start the reaction, 3.5 ul of ATP (diluted in 1× reaction buffer) is added per well for a final concentration of 10 μM ATP. The plate is sealed and incubated for 1 hour at room temperature. The reaction is stopped by adding 5 ul of Stop Solution per well and then 5 ul of Detection Mix is added per well. The plate is sealed, incubated for 1 hour at room temperature, and then read on an appropriate plate reader. Data is analyzed and IC50s are generated using GraphPad Prism 5. For PI3K α, β, δ, and γ, the nM concentration of inhibitor to reach IC50 is provided. […] Similar assays, and others known in the art, can be used to measure the percent inhibition of other kinases, including but not limited to PI3K class II kinases, phosphoinositide 4 kinases (PI4K), and phosphoinositide 5 kinases (PI5K).

PI3K α = biological target: T2, PI3K α (Homo sapiens, UniProt P42336); assay: PI 3-Kinase HTRF inhibition assay, PI3K α
T2 construct: purchased Upstate
T2 sequence (P42336 whole entry): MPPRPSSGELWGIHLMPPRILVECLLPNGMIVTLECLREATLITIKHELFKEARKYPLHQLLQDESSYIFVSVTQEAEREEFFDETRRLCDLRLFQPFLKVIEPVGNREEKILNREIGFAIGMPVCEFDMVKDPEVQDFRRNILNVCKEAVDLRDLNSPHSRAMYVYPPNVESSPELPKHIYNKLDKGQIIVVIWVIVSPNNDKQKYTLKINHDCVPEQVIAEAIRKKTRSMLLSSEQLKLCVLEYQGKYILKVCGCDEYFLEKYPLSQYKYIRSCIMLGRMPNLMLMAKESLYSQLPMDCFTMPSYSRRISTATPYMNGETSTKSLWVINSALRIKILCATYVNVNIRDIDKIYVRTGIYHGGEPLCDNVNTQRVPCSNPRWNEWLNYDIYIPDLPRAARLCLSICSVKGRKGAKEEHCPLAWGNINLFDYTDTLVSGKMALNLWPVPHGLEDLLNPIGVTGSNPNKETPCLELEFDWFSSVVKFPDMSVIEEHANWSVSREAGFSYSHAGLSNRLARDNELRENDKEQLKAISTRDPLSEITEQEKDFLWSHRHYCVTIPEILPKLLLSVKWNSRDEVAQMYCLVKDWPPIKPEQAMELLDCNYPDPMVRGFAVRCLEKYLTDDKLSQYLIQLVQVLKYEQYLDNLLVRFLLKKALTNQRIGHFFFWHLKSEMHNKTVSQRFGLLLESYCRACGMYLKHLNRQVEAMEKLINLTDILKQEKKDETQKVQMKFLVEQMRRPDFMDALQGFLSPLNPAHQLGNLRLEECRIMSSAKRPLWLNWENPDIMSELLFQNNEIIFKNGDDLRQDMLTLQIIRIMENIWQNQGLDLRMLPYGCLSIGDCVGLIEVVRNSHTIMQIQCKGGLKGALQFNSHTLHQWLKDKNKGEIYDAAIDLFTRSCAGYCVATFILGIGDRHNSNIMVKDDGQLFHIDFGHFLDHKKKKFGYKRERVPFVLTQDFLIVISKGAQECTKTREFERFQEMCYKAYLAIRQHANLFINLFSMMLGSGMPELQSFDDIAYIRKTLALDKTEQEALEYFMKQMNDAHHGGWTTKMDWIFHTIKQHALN
T2 sequence (P27986 whole entry partner): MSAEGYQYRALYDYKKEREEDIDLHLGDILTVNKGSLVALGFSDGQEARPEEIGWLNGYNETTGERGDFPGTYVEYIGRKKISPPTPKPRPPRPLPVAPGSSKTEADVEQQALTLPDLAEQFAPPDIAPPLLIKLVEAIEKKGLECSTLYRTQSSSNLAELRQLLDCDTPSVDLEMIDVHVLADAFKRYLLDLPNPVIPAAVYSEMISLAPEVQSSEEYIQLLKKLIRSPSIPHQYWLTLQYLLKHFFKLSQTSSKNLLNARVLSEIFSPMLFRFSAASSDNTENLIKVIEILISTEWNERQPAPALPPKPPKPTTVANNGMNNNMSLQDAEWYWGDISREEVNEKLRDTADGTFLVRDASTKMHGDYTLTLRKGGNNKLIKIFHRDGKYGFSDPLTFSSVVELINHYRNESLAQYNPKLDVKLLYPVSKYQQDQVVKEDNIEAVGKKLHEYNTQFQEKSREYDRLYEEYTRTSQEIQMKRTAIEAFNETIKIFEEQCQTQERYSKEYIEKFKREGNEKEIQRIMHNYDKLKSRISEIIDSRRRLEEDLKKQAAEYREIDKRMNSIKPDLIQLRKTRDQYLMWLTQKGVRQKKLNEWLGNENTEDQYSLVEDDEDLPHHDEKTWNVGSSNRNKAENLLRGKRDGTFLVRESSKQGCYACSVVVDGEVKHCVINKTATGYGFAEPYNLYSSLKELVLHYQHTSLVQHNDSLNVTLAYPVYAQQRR
Experimental: as §1

mTOR C = biological target: T3, mTOR C (Homo sapiens, UniProt P42345); assay: mTOR kinase inhibition assay (mTORC IC50); conditions: in vitro
T3 construct: purchased Invitrogen
Experimental: The cross-activity or lack thereof of one or more compounds of the present invention against mTor can be measured according to any procedures known in the art or methods disclosed below. The compounds described herein can be tested against recombinant mTOR (Invitrogen) in an assay containing 50 mM HEPES, pH 7.5, 1 mM EGTA, 10 mM MgCl2, 2.5 mM, 0.01% Tween, 10 μM ATP (2.5 μCi of […]), and 3 μg/mL BSA. Rat recombinant PHAS-1/4EBP1 (Calbiochem; 2 mg/mL) is used as a substrate. Reactions are terminated by spotting onto nitrocellulose, which is washed with 1M NaCl/1% phosphoric acid (approximately 6 times, 5-10 minutes each). Sheets are dried and the transferred radioactivity quantitated by phosphorimaging.
Other kits or systems for assaying mTOR activity are commercially available. For instance, one can use Invitrogen's LanthaScreen™ Kinase assay to test the inhibitors of mTOR disclosed herein. This assay is a time resolved FRET platform that measures the phosphorylation of GFP labeled 4EBP1 by mTOR kinase. The kinase reaction is performed in a white 384 well microtitre plate. The total reaction volume is 20 ul per well and the reaction buffer composition is 50 mM HEPES pH7.5, 0.01% Polysorbate 20, 1 mM EGTA, 10 mM MnCl2, and 2 mM DTT. In the first step, each well receives 2 ul of test compound in 20% dimethylsulphoxide resulting in a 2% DMSO final concentration. Next, 8 ul of mTOR diluted in reaction buffer is added per well for a 60 ng/ml final concentration. To start the reaction, 10 ul of an ATP/GFP-4EBP1 mixture (diluted in reaction buffer) is added per well for a final concentration of 10 μM ATP and 0.5 μM GFP-4EBP1. The plate is sealed and incubated for 1 hour at room temperature. The reaction is stopped by adding 10 ul per well of a Tb-anti-pT46 4EBP1 antibody/EDTA mixture (diluted in TR-FRET buffer) for a final concentration of 1.3 nM antibody and 6.7 mM EDTA. The plate is sealed, incubated for 1 hour at room temperature, and then read on a plate reader set up for LanthaScreen™ TR-FRET. Data is analyzed and IC50s are generated using GraphPad Prism 5.

PI3K γ = biological target: T4, PI3K γ (Homo sapiens, UniProt P48736); assay: PI 3-Kinase HTRF inhibition assay, PI3K γ; conditions: in vitro
T4 construct: purchased Upstate
T4 sequence (P48736 whole entry): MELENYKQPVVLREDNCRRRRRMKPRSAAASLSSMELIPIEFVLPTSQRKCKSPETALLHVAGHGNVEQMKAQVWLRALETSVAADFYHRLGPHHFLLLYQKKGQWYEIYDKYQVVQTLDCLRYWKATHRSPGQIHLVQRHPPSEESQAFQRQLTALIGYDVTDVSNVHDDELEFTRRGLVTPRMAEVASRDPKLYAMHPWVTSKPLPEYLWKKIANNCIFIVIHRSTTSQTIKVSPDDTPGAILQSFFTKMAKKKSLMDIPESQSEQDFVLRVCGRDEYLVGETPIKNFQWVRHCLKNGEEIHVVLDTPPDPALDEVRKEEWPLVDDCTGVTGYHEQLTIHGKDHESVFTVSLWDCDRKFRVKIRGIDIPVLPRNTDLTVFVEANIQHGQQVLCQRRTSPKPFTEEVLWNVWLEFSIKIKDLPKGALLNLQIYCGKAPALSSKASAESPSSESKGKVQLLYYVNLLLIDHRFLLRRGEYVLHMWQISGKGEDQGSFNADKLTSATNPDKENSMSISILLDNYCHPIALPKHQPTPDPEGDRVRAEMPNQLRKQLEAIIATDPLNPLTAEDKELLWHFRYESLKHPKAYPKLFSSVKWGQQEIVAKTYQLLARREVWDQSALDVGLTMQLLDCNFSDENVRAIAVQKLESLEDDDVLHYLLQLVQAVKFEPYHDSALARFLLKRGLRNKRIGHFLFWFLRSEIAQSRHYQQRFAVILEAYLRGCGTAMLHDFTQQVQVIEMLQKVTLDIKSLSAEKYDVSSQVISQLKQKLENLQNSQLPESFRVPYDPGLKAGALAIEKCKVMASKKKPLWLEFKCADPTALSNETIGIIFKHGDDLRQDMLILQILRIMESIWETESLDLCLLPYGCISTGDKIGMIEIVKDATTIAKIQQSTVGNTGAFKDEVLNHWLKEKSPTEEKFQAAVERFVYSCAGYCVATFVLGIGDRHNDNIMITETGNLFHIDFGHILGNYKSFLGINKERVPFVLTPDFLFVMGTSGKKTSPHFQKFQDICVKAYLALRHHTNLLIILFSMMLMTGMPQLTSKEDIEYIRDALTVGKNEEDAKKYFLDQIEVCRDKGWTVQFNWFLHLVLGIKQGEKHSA

PI3K β = biological target: T5, PI3K β (Homo sapiens, UniProt P42338); assay: PI 3-Kinase HTRF inhibition assay, PI3K β; conditions: in vitro
T5 construct: purchased Upstate
T5 sequence (P42338 whole entry): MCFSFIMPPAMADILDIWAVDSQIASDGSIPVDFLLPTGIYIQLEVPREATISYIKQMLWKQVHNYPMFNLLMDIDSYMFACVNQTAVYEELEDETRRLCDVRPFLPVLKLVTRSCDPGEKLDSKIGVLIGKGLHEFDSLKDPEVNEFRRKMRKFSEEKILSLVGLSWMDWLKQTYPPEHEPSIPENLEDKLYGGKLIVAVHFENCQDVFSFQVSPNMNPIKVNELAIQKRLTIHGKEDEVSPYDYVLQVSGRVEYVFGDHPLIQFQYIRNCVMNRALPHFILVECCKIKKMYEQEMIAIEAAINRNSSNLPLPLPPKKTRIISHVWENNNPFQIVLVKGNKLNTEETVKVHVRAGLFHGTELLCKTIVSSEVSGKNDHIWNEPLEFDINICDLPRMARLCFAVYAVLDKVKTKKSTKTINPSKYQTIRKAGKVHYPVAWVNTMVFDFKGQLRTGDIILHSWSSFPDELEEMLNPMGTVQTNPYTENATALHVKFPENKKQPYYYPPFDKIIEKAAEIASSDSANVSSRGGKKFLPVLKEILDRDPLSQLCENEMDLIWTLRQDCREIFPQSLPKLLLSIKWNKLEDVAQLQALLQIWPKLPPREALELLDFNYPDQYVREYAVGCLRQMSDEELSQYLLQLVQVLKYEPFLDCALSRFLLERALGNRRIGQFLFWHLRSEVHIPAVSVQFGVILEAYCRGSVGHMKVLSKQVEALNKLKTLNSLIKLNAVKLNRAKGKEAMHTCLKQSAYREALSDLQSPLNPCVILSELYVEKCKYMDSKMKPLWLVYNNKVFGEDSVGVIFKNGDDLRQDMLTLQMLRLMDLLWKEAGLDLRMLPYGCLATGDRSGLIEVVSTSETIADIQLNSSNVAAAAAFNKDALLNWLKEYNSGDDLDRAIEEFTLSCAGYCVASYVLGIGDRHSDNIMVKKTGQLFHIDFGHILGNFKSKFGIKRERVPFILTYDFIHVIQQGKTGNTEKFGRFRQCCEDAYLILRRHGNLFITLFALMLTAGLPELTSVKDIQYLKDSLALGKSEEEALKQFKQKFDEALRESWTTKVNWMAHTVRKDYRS
T5 sequence (P27986 whole entry partner): as the sequence (P27986 whole entry partner) above
Experimental: as §1

[1] = in vitro, read-out: PI3K δ IC50
[2] = in vitro, read-out: PI3K α IC50

T1 sequence (O00329 whole entry): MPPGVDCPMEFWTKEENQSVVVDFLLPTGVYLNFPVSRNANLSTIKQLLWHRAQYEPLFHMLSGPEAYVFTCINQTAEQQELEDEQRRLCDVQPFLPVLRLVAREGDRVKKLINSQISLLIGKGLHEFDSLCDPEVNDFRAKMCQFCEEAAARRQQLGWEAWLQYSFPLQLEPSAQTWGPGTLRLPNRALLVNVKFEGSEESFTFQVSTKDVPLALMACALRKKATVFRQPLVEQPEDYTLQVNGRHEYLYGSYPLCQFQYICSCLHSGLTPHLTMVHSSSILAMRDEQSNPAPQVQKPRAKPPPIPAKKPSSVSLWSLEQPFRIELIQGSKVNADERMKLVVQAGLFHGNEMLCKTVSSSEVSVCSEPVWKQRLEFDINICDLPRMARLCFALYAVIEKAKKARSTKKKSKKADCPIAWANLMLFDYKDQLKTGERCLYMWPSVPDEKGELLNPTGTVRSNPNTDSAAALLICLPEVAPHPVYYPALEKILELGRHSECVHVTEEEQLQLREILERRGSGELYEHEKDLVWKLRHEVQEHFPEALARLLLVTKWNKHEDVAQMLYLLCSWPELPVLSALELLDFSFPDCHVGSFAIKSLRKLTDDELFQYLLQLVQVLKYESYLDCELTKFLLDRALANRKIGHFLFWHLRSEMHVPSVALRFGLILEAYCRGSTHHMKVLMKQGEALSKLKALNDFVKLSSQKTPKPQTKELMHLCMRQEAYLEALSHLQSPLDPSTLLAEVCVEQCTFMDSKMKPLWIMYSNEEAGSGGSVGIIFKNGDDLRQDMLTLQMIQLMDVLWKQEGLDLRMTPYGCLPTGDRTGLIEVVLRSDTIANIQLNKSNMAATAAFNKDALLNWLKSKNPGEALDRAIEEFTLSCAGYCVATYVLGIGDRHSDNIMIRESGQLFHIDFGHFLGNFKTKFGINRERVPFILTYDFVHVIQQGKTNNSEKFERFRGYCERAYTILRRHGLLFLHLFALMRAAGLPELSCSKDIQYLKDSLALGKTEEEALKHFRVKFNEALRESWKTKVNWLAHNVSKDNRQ
T1 sequence (P27986 whole entry partner): as the sequence (P27986 whole entry partner) above

| SMILES | IC50 (PI3K δ; [1]) | IC50 (PI3K α; [2]) | IC50 (mTOR C) | IC50 (PI3K γ) | IC50 (PI3K β) | IC50 (PI3K δ) | IC50 (PI3K α) |
| --- | --- | --- | --- | --- | --- | --- | --- |
| Nc1nc2cc(-c3ccc4ncc(N5C6CCC5COC6)nc4n3)ccc2o1 [Compound 19] | > 10 µM | < 0.1 µM | > 10 µM | < 0.1 µM | > 10 µM |  |  |
| CN1CCN(C2CN(c3cnc4ccc(-c5ccc6oc(N)nc6c5)nc4c3)C2)CC1=O [Compound 64] | < 1 µM | < 0.1 µM |  | < 0.1 µM | < 10 µM |  |  |
| Nc1nc2cc(-c3ccc4ncc(N5CC(N6CCN(CCO)CC6)C5)cc4n3)ccc2o1 [Compound 65] | < 1 µM | < 0.1 µM |  | < 1 µM | < 10 µM |  |  |
| C[C@@H]1COCCN1C1CN(c2cnc3ccc(-c4ccc5oc(N)nc5c4)nc3c2)C1 [Compound 66] | < 1 µM | < 0.1 µM |  | < 0.1 µM | < 10 µM |  |  |
| Nc1nc2cc(-c3ccc4ncc(N5CC(N6C7CCC6COC7)C5)cc4n3)ccc2o1 [Compound 67] |  | < 0.1 µM |  | < 1 µM | > 10 µM | < 10 µM |  |
| C[C@H]1COCCN1C1CN(c2cnc3ccc(-c4ccc5oc(N)nc5c4)nc3c2)C1 [Compound 68] | > 10 µM | < 0.1 µM |  | < 10 µM | > 10 µM |  |  |
| Nc1nc2cc(-c3ccc4ncc(N5CC(N6CCN(C7CC7)CC6)C5)nc4n3)ccc2o1 [Compound 69] | < 10 µM | < 0.1 µM |  | < 10 µM | < 10 µM |  |  |
| Nc1nc2cc(-c3ccc4ncc(N5CC(N6CCN(C7CC7)CC6)C5)cc4n3)ccc2o1 [Compound 70] | < 10 µM | < 0.1 µM |  | < 1 µM | < 10 µM |  |  |
| CN1CCN(C2CN(c3cnc4ccc(-c5ccc6oc(N)nc6c5)nc4n3)C2)CC1 [Compound 71] | < 1 µM | < 0.1 µM |  | > 10 µM | < 10 µM |  |  |
| Nc1nc2cc(-c3cnc4ccc(N5CCOCC5)nc4c3)ccc2o1 [Compound 73, 5-(6-morpholino-1,5-naphthyridin-3-yl)benzo[d]oxazol-2-amine] | > 10 µM | < 10 µM |  | < 10 µM | > 10 µM |  |  |
| CN1CCN(C2CN(c3cnc4ccc(-c5ccc6oc(N)nc6c5)nc4c3)C2)CC1 [Compound 74] | < 1 µM | < 0.1 µM |  | < 1 µM | < 1 µM |  |  |
| CCN1CCN(C2CN(c3cnc4ccc(-c5ccc6oc(N)nc6c5)nc4c3)C2)CC1 [Compound 75] | < 1 µM | < 0.1 µM |  | < 10 µM | < 1 µM |  |  |
| CCN1CCN(C2CN(c3cnc4ccc(-c5ccc6oc(N)nc6c5)nc4n3)C2)CC1 [Compound 76] | < 10 µM | < 0.1 µM |  | < 10 µM | < 10 µM |  |  |
| CC(C)N1CCN(C2CN(c3cnc4ccc(-c5ccc6oc(N)nc6c5)nc4n3)C2)CC1 [Compound 77] | > 10 µM | < 10 µM |  | > 10 µM | > 10 µM |  |  |
| CN1CC2CN(c3cnc4ccc(-c5ccc6oc(N)nc6c5)nc4n3)CC2C1 (centres unmarked) [Compound 78] | < 1 µM | < 0.1 µM | > 10 µM | < 10 µM | < 1 µM |  |  |
| CN1CC2CN(c3cnc4ccc(-c5ccc6oc(N)nc6c5)nc4c3)CC2C1 (centres unmarked) [Compound 79] | < 1 µM | < 0.1 µM | > 10 µM | < 1 µM | < 1 µM |  |  |
| CN1CCN(c2ccc3ncc(-c4ccc5oc(N)nc5c4)cc3n2)CC1 [Compound 80] | > 10 µM | < 10 µM |  | > 10 µM | < 10 µM |  |  |
| Nc1nc2cc(-c3cnc4ccc(N5C6CCC5COC6)nc4c3)ccc2o1 [Compound 81] | > 10 µM |  |  | < 10 µM | > 10 µM |  | < 10 µM |
| CC(C)(N)C(=O)N1CCN(c2ccc3ncc(-c4ccc5oc(N)nc5c4)cc3n2)CC1 [Compound 82] | > 10 µM | < 10 µM |  | < 10 µM | > 10 µM |  |  |
| CN1CCN(C2CN(c3cnc4ccc(-c5ccc6oc(N)nc6c5)nc4c3)C2)CC1(C)C [Compound 83] | < 0.1 µM | < 0.1 µM |  | < 1 µM | < 1 µM |  |  |
| CN1CCN(C2CN(c3ccc4ncc(-c5ccc6oc(N)nc6c5)cc4n3)C2)CC1 [Compound 84] | > 10 µM | < 10 µM |  | > 10 µM | > 10 µM |  |  |
| CC(C)N1CCN(C2CN(c3cnc4ccc(-c5ccc6nc(N)[nH]c6c5)nc4c3)C2)CC1 [Compound 85] | > 10 µM | < 0.1 µM |  | > 10 µM | > 10 µM |  |  |
| C[C@@H]1CN(C2CN(c3cnc4ccc(-c5ccc6nc(N)[nH]c6c5)nc4c3)C2)CCN1C [Compound 86] | > 10 µM | < 0.1 µM |  | > 10 µM | > 10 µM |  |  |
| CCN1CCN(C2CN(c3cnc4ccc(-c5ccc6nc(N)[nH]c6c5)nc4c3)C2)CC1 [Compound 87] | > 10 µM | < 0.1 µM |  | > 10 µM | > 10 µM |  |  |
| CN1CCN(C2CN(c3cnc4ccc(-c5ccc6nc(N)[nH]c6c5)nc4c3)C2)CC1 [Compound 88] | > 10 µM | < 0.1 µM |  | > 10 µM | > 10 µM |  |  |
| C[C@H]1CN(C2CN(c3cnc4ccc(-c5ccc6nc(N)[nH]c6c5)nc4c3)C2)CCN1C [Compound 89] | > 10 µM | < 0.1 µM |  | > 10 µM | > 10 µM |  |  |
